Where “and” joins values, the source holds several entries; their conditions need not be identical. Identical values can stand only once. Calls of active or inactive are those of the source.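 The calls were made as follows: active = compounds giving half or more protection of infected cells from virus-caused growth loss, again on retest; inactive = the rest.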 A value given as a limit tells only on which side of the number the result lay.

In the assay the test system is CEM cells HIV-1 protection, formazan growth assay. The experiment in a line: NCI AIDS Antiviral Assay. To be noted: for IC50: measured here: growth of uninfected CEM cells. The gist of the method: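 Screen of anti-HIV-1 activity in human CEM cells using a formazan-based growth measurement at five drug concentrations. Hits with 50% or greater protection were repeated, and confirmation required reproducible complete protection.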

As a reminder, the EC50 is the concentration giving half of the maximal effect. What is called IC50 is the concentration that inhibits the measured activity by half. Higher therefore signals weaker potency in that assay. For the compound `CC(=O)OC(OC(C)=O)c1ncccc1C(=O)OC(C)C`, the EC50 is over 851 µM and the 50% inhibitory concentration (IC50) was 112 µM.

Turning to `CC(=O)NC(CCCNC(=O)N(C)N=O)C(=O)NCc1ccccc1` (stereo unspecified), the EC50 is over 708 µM and the IC50 was over 708 µM.

`N/C(=N/O)C(F)(F)C(F)(F)C(F)(F)/C(N)=N\O`: the EC50 is over 200 µM and the 50% inhibitory concentration (IC50) was over 200 µM.

For `N#CC(C(=N/O)/C(=N/O)C(C#N)c1ccc(Cl)cc1)c1ccc(Cl)cc1` (stereo unspecified), the EC50 was over 468 µM and the concentration for half-maximal inhibition (IC50) stood at 178 µM.

With `Cc1c(N/C=C(\C#N)C(=O)c2ccc(Cl)cc2)c(=O)n(-c2ccccc2)n1C`, the EC50 was over 200 µM and the IC50 was 72.4 µM.

Turning to `CCN(CC)C1Oc2cc3c(cc2C(c2cc(OC)c(OC)c(OC)c2)C1C)OCO3` (stereo unspecified), the EC50 was over 100 µM and the IC50 came out at 0.537 µM.

As to `CCC1(O)CC(OC2CC(N(C)C)C(OC3CC4OC5CC(=O)C(C)OC5OC4C(C)O3)C(C)O2)c2c(cc3c(c2O)C(=O)c2c(O)ccc(O)c2C3=O)C1C(=O)OC` (stereo unspecified), the EC50 was over 2.4 µM; the IC50 was 0.0155 µM and 0.012 µM.

As for `CCCCCC(=O)n1[nH]c(=O)n(-c2ccc(OC)cc2)c1=O`, the EC50 was over 200 µM and the IC50 was over 200 µM.

Turning to `COC(=O)N1[C@H]2Cc3c(OC)c(C)c(OC)c(OC)c3[C@@H]1/C(=C\c1cc(OC)c(OC)c(C)c1OC)N(Cc1ccccc1)C2=O`, the outcome was inactive.

With `O=c1c(-c2ccccc2)nnc2n(Cc3ccccc3)c3ccccc3n12`, the EC50 was over 200 µM and the IC50 came to 112 µM.

On to `CCCCOC(=O)N(CCCC)c1ccccc1`, for which the EC50 was over 200 µM and the IC50 was 151 µM.

With `CSc1c(C(=O)Nc2ccccc2)c(N)nn1-c1ccccc1`, the EC50 was over 200 µM and the IC50 is 70.8 µM.

As for `CC(=O)Nc1ccc(N2C(=O)/C(=C\c3cccc(Oc4ccccc4)c3)SC2c2ccccc2)cc1` (stereo unspecified), the EC50 is over 200 µM and the IC50 is 36.3 µM.

Consider `CCOC(=O)/C(C(=S)NCc1ccccc1)=C(/N)N1CCCC1`, for which the EC50 is over 200 µM and the IC50 was over 200 µM.

Take `C[C@H](NC(=O)CNC(=O)CCCCCC(=O)NCC(=O)N[C@@H](C)C(=O)OCc1ccccc1)C(=O)OCc1ccccc1`: the EC50 was over 200 µM and the IC50 is over 100 µM.

Take `CCOC(=O)c1nc2ccccc2nc1NCc1ccc(OC)c(OC)c1`: the EC50 was over 200 µM and the IC50 was over 200 µM.

Take `COc1ccc(S(=O)(=O)N(C)CC(=O)O)cc1`: the outcome was inactive.

In the case of `S=C(N/N=C(/c1ccccc1)c1ccccn1)N(Cc1ccccn1)Cc1ccccn1`, the EC50 is over 200 µM and the IC50 came out at 0.0631 µM.

Turning to `COCn1c2ccc(OC(C)=O)cc2c2c(=O)oc(C)nc21`, the EC50 is over 200 µM and the IC50 worked out at 170 µM.

For the compound `NC1=NC(OCC2(CO)CCC2)C=C(NCC2(CO)CCC2)N1` (stereo unspecified), the EC50 was over 200 µM and the half-maximal inhibitory concentration (IC50) is over 100 µM.

Take `COc1cc(CNc2nc3cc(C(F)(F)F)ccc3nc2C(=O)O)cc(OC)c1OC`: the EC50 was over 200 µM and the IC50 was 97.7 µM.

On to `OCC1OC(n2cnc3c(Cl)ncnc32)C(O)C1O` (stereo unspecified), for which the result was inactive.

In the case of `CCCCNC(C)(C)C(SSSC(c1ccco1)C(C)(C)NCCCC)c1ccco1` (stereo unspecified), the EC50 was over 200 µM and the IC50 worked out at 30.9 µM.

For `CCN(CC)CCN(C)CCc1ccc(Br)cc1`, the EC50 is over 126 µM and the IC50 is 112 µM.

As to `Nc1c(O)cc(N=C2C(=O)C=CC=C2C(=O)O)c(O)c1C(=O)O`, the result was inactive.

With `C=CCO[C@H]1CC[C@@]2(C)C(CC[C@]3(C)C2CC=C2[C@@H]4[C@@H](C)C(C)CC[C@]4(C(=O)O)CCC23C)C1(C)C` (stereo partly specified), the outcome was inactive.

As to `c1ccc(OCc2nnc(CCCCCCCCc3nnc(COc4ccccc4)o3)o2)cc1`, the EC50 was over 200 µM and the IC50 was over 200 µM.

`O=[N+]([O-])c1ccc(/C(Cl)=C/c2ccc(/C=C(\Cl)c3ccc([N+](=O)[O-])cc3[N+](=O)[O-])cc2)c([N+](=O)[O-])c1`: the EC50 is over 1.41 µM and the IC50 was over 1.41 µM.

`O=S(O)CCCCCSSSCCCCCS(=O)O`: the result was inactive.

On to `COc1ccc([C@@H]2ON(C)[C@H]3CN(C)C(=O)[C@@H]23)cc1`, for which the EC50 is over 200 µM and the IC50 was over 200 µM.

Regarding `COc1ccc2c(c1)OCC(O)(c1ccccc1)C2O` (stereo unspecified), the EC50 was over 200 µM and the IC50 was over 200 µM.

As for `COc1ccc(S(=O)Cc2cc(OC)ccc2OC)cc1` (stereo unspecified), the outcome was inactive.

Consider `CC1(C)C(=O)C2(C#N)CCC1C2` (stereo unspecified), for which the EC50 is over 200 µM and the IC50 was over 200 µM.

`C=C1CCC2(C(C)=O)COC1(C)O2` (stereo unspecified): the result was inactive.

Turning to `O=C1c2ccccc2-c2c1c(-c1ccccc1)c1n2C2(C(=O)c3ccccc3C2=O)C2C(=O)N(c3ccccc3)C(=O)C12` (stereo unspecified), the EC50 is over 200 µM and the concentration for half-maximal inhibition (IC50) came out at 120 µM.

Regarding `O=Cc1[nH]c(=O)[nH]c(=O)c1C(=O)O`, the EC50 is over 200 µM and the IC50 is over 200 µM.

Consider `CC(C)Oc1cc2c(c3oc(=O)cc(CCl)c13)C(=O)[C@H](C)[C@@H](C)O2`, for which the EC50 is over 200 µM and the IC50 came to 5.37 µM.

Take `COc1ccccc1C1ON=C(c2ccc([N+](=O)[O-])cc2)N1C12CC3CC(CC(C3)C1)C2` (stereo unspecified): the EC50 was over 200 µM and the IC50 was over 200 µM.

Turning to `CC12C=CC(C)(C3C(=O)C4C(C(=O)C31)C1(C)C=CC4(C)S1=O)S2=O` (stereo unspecified), the EC50 was 21.9 µM and the IC50 turned out to be 60.3 µM.

`CN(C)c1ccc(C(=C2C=CC(=[N+](C)C)C=C2)c2ccc(N(C)C)cc2)cc1`: the result was inactive.

Consider `NCCN(CCN(C(=O)Nc1ccccc1)c1ccccc1)C(=O)Nc1ccccc1`, for which the EC50 was over 200 µM and the IC50 was determined as 35.5 µM.

In the case of `CC(=O)C1(N=Nc2ccc(S(=O)(=O)Nc3nccc(C)n3)cc2)CCOC1=O` (stereo unspecified), the EC50 is over 200 µM and the IC50 was over 200 µM.

For `Cc1cn([C@H]2CS[C@@H](CO)CO2)c(=O)[nH]c1=O`, the result was inactive.

As for `COC(CN(C)C(=S)Nc1cccc2ccccc12)OC`, the EC50 is over 200 µM and the IC50 was 79.4 µM.

On to `C=C1c2nc3ccccc3n2C=C(c2ccccc2)N1c1ccc(C)cc1`, for which the EC50 is over 200 µM and the IC50 amounted to 28.2 µM.

As to `Oc1cccc(C(O)CNC2CCCCC2)c1` (stereo unspecified), the EC50 was over 200 µM and the IC50 is over 200 µM.

`O=C1NN2CCN=C2c2cnccc21`: the EC50 is over 1320 µM and the IC50 was over 1320 µM.

In the case of `Cc1cc2c(cn1)C(=O)OCC2`, the outcome was inactive.

As for `COc1ccc2c(c1)CCC1C3(CCCC21C=O)OCCO3` (stereo unspecified), the EC50 was over 166 µM and the concentration for half-maximal inhibition (IC50) was over 166 µM.

Take `COC(=O)c1cc(C(=CCCCCBr)c2cc(Cl)c(OC)c(C(=O)OC)c2)cc(Cl)c1OC`: the EC50 is 45.7 µM and the IC50 came to 151 µM.

Consider `O=C(O)CN(CC(=O)O)Cc1ccn(-c2cccc(-n3ccc(CN(CC(=O)O)CC(=O)O)n3)n2)n1`, for which the EC50 is over 200 µM and the IC50 is over 200 µM.

Turning to `S=C1NC(c2cccs2)N2C(=S)NC(c3cccs3)N12` (stereo unspecified), the EC50 was over 200 µM and the IC50 was over 200 µM.

In the case of `CCCSP(SCCC)SCCC`, the result was inactive.

Turning to `O=C(Nc1cc2c(oc1=O)CCCCC2)c1ccccc1`, the EC50 is over 200 µM and the IC50 was over 200 µM.

Consider `COc1ccc2nc3cccc([N+](=O)[O-])c3c(NCCN(CCO)CCO)c2c1`, for which the EC50 is over 2 µM and the IC50 stood at 0.0977 µM.

`COC(=O)c1ccc(Nc2nc3nc[nH]c3c(=O)[nH]2)cc1`: the EC50 was over 200 µM and the IC50 was found to be 42.7 µM.

On to `c1ccc2c3c([nH]c2c1)C1c2[nH]c4ccccc4c2CCN1CC3`, for which the EC50 was over 200 µM and the IC50 is 11 µM.

As for `Nc1[nH]n(-c2ccccc2)c(=O)c1/C=N/C(=S)N=Nc1c(O)[nH]c2ccccc12`, the EC50 is over 200 µM and the IC50 is 83.2 µM.

Regarding `CCOC(=O)c1cc2c3c(c(C(C)=O)c(OC)c2[nH]1)N(C(=O)CC)CC3`, the EC50 is over 200 µM and the IC50 is 16.2 µM.

Consider `O=C1C2=C(c3ccccc31)C(c1ccc(Cl)cc1)NC(=S)N2` (stereo unspecified), for which the EC50 was over 57.5 µM and the IC50 stood at 29.5 µM.

As for `C(=C\c1ccccc1)/Cn1nc(-c2ccccc2)nc1-c1cnccn1`, the EC50 is 145 µM and the IC50 is over 200 µM.

Turning to `O=S(=O)(c1ccccc1)n1c2ccc(Br)cc2c2nc3ccccc3nc21`, the EC50 was over 200 µM and the IC50 was over 200 µM.

Turning to `COP12(OC)NC(=O)OC1(C(F)(F)F)c1ccccc1O2` (stereo unspecified), the EC50 was over 776 µM and the IC50 is 537 µM.

For `CN1CCN(C(=S)N(C(=O)c2ccc(Cl)cc2)c2ccccc2)CC1`, the EC50 is over 13.8 µM and the IC50 was over 13.8 µM.

With `O=C(Nc1ccc(/C=C/c2ccc(NC(=O)c3ccc(N=Nc4cc(S(=O)(=O)O)c5cccnc5c4O)cc3)cc2S(=O)(=O)O)c(S(=O)(=O)O)c1)c1ccc(N=Nc2cc(S(=O)(=O)O)c3cccnc3c2O)cc1`, the EC50 is 17.8 µM and the concentration for half-maximal inhibition (IC50) was over 100 µM.

With `C=CCCCCCCCCC(=O)NC(C)C(C)(C)C` (stereo unspecified), the EC50 is over 200 µM and the IC50 amounted to 74.1 µM.

In the case of `CCCCCC=C(c1cc(C)c(OC)c(Br)c1)c1cc(C)c(OC)c(Br)c1`, the EC50 is over 200 µM and the IC50 stood at 15.5 µM.

Regarding `CCCC(C(=O)OCC(C)N1CCCC1(C)C)C1CCCC1` (stereo unspecified), the result was inactive.

With `COC(=O)c1cc(C#N)[nH]c1-c1cc(Br)cs1`, the EC50 was over 200 µM and the 50% inhibitory concentration (IC50) was 11.7 µM.

For the compound `O=S(Cc1ccccn1)c1nc2ccccc2nc1-c1ccccc1` (stereo unspecified), the EC50 was over 28.8 µM and the IC50 is over 28.8 µM.

In the case of `Cn1nc2ccc3nccc(N(CCO)CCO)c3c2n1`, the EC50 is over 631 µM and the IC50 was 31.6 µM.

Consider `CCOC(=O)C12CCSC1C1(C#N)C(C#N)=CC2(N=P(c2ccccc2)(c2ccccc2)c2ccccc2)n2c(=O)n(-c3ccccc3)c(=O)n21` (stereo unspecified), for which the EC50 is over 26.3 µM and the IC50 is over 26.3 µM.
